The text below walks through data of patent US3954778A, “Aminoacetyl derivatives of 2,3-diphenyl cyclopropyl amine” (priority 1970, dated 1976).

A word on the ED50: it is the dose that gives a 50% effect, or the effect in half of the subjects. Usually LD50 stands for the dose expected to kill half of the subjects tested. A low value points to a more toxic substance.

Data set [1] has as its system male albine Swiss mice. Kind of data set: Electroshock (M.E.S.). In kind it is in vivo. To be noted: for ED50: Mus musculus. As for the experimental part:
(§1) Materials and methods. The animals used to perform the pharmacological tests with the compounds of the invention have been, unless the contrary is explicitly indicated, male albine Swiss mice weighing 19-23 g; each animal has been used only once.
(§2) The compounds have been administered as hydrochlorides, under skin (0.1 ml/10 g) 30 minutes ante; for determining the LD50, the compounds have been administered by intraperitoneal route and were considered deaths occured in the 72 hours following the treatment.
(§3) As reference compounds there was used: ethosuximide injected under skin 30 minutes ante (before); Phenurone per os 60 minutes ante; phenobarbital sodium salt under skin 30 minutes ante, trimethadione under skin 30 minutes ante; primidone per os 6 hours ante and Mephenesin under skin 30 minutes ante.
Electroshock (M.E.S.) -- The method adopted in making the electroshock is Cashin C.
(§4) The so-obtained data have been elaborated by calculating the ED50 and the LD50 according to Lichtfield-Wilcoxon's method (J. Pharmacol. 1949, 96, 99).

Data set [2] concerns male albine Swiss mice. Kind of data set: Shock by cardiazol (M.M.S.). To be noted: for ED50: Mus musculus. The class given is in vivo. As for the experimental part: as §1, §2, §3
Under such conditions the results obtained with the reference compounds are in good agreement with those reported in the art for the same compounds (E. A. Swinyard, W. C. Brown, L. S. Goodman --J. Pharmacol., 1952, 106, 3 19). Shock by cardiazol (M.M.S.) -- 38 mg/kg of cardiazol, in the form of a 0.38% aqueous solution, is quickly injected in the dorsal vein of the mouse's tail (L. S. Goodman, M. Singh Grewal, W. C. Brown, E. A. Swinyard -- J. Pharmacol. 1953, 108, 168). The animals are considered as protected when the extensor phase of the hind paws is eliminated during the tonic crisis.
as §4

A short description of the next data set: Acute toxicity LD50. The note with it: mouse, in vivo, ip. As for the experimental part:
as §1, §2, §4

For a further data set, the system named is rat. Kind of data set: Inhibition of calcium chloride induced cardiac arrhythmias in rats. The class given is in vivo. To be noted: for minimal effective dose: read-out: active dose (complete inhibition of cardiac arrhythmias). As for the experimental part:
The new compounds of the invention are deprived of MAO-inhibiting activity in live rats, both on the mithocondres of hepatic tissue and on the mithocondres of homogenatous of cerebral tissue, even if administered in doses of 100-200 mg/kg per os. […] In particular the activity in cardiac arrhythmias of N-pyrrolidinoacetyl-2,3-cis, trans-diphenylcyclopropylamine has been studied by experimentally inducing arrhythmias in rats by means of calcium chloride, and in dogs by means of adrenaline.
The experiments in rats have been performed as follows:
There was determined the inhibiting effect of N-pyrrolidine acetyl-2,3-cis,trans-diphenylcyclopropylamine hydrochloride on the cardiac arrhythmias arising within the 5 minutes following the calcium chloride administration in comparison with quinidine, procaine and propranolol.

In the next data set the test system is dog. Kind of data set: Protection from adrenaline induced cardiac arrhythmias in dogs. The class given is in vivo. To be noted: 1 mg/kg intravenous. As for the experimental part:
The new compounds of the invention are deprived of MAO-inhibiting activity in live rats, both on the mithocondres of hepatic tissue and on the mithocondres of homogenatous of cerebral tissue, even if administered in doses of 100-200 mg/kg per os. As found also with other anticonvulsive drugs, the new compounds of the present invention are endowed with a good antiarrhythmic activity. In particular the activity in cardiac arrhythmias of N-pyrrolidinoacetyl-2,3-cis, trans-diphenylcyclopropylamine has been studied by experimentally inducing arrhythmias in rats by means of calcium chloride, and in dogs by means of adrenaline.
The experiments with dogs have been performed as follows:
The dog has been anesthetized with chloralose and then administered by intravenous injection with 30 γ/kg of adrenaline. The results were evaluated according to Somani and Lum B. K. B. (J. Pharmacol. Expt. Therap. 1965, 147, 194-202).

Where [3] appears, read: sc, 0.5 h, new compounds (Table 2), as hydrochlorides, under skin 30 minutes ante, read-out: ED50 M.E.S.
The mark [4] stands for this setting: sc, 0.5 h, new compounds (Table 2), as hydrochlorides, under skin 30 minutes ante, cardiazol 38 mg/kg i.v., read-out: ED50 M.M.S.
Setting [5] is: sc, 0.5 h, read-out: M.M.S. ED50.
[6] abbreviates: sc, 0.5 h, reference compounds (Table 1), under skin 30 minutes ante, cardiazol 38 mg/kg i.v., read-out: M.M.S. ED50.

Structures can show the parent of a compound that is named as a salt. Where two headings read alike, the source gives them in different places.

In the case of `CCCCN(CCCC)CC(=O)NC1[C@H](c2ccccc2)[C@H]1c1ccccc1` (relative stereo) [cis-trans, R1 = n-C4 H9, R2 = n-C4 H9, N-di-n-butylaminoacetyl-2,3-cis,trans-diphenylcyclopropylamine], the ED50 in the data set with male albine Swiss mice [1] (setting [3]) and in the data set on male albine Swiss mice [2] (setting [4]) was above 250 mg/kg throughout.

Turning to `O=C(CN1CCCC1)NC1[C@H](c2ccccc2)[C@H]1c1ccccc1` (relative stereo) [cis-trans, N-pyrrolidinoacetyl-2,3-cis,trans-diphenylcyclopropylamine], in “Acute toxicity LD50”, the LD50 at 72 h was determined as 67.5 mg/kg. Besides, the ED50 stood at 9 mg/kg in the data set with male albine Swiss mice [1] (setting [3]) and 5.6 mg/kg with male albine Swiss mice [2] (setting [4]).

On to `CCN(CC)CCOC(=O)c1ccc(N)cc1` [procaine], for which the minimal effective dose in the data set on rat (Rattus norvegicus) came out at 5 mg/kg.

Regarding `CNCC(=O)NC1[C@H](c2ccccc2)[C@H]1c1ccccc1` (relative stereo) [cis-trans, R1 = H, R2 = CH3, N-methylaminoacetyl-2,3-cis,trans-diphenyl-cylcopropylamine hydrochloride], the 50% lethal dose (LD50) at 72 h in the data set “Acute toxicity LD50” was 112 mg/kg. In addition, the ED50 amounted to 25.5 mg/kg in the data set on male albine Swiss mice [1] (setting [3]) and 30 mg/kg with male albine Swiss mice [2] (setting [4]).

Turning to `C=C[C@H]1C[N@@]2CC[C@H]1C[C@@H]2[C@@H](O)c1ccnc2ccc(OC)cc12` [quinidine], in the data set on rat (Rattus norvegicus), the minimal effective dose was determined as 2.5 mg/kg.

As for `O=C(CN1CCCC1)NC1[C@H](c2ccccc2)[C@H]1c1ccccc1` (relative stereo) [N-pyrrolidinoacetyl-2,3-cis,trans-diphenylcyclopropylamine hydrochloride], in the data set on dog (2 minutes ante adrenaline (30 γ/kg i.v.)), the “protection from adrenaline arrhythmia” value is given as “completely protected”. This compound had a duration of effect with dog (adrenaline arrhythmia) of 60 min. Also, the minimal effective dose in the data set on rat (calcium chloride 80 mg/kg i.v., anesthetized rat, drug 90 seconds before calcium chloride) was determined as 2 mg/kg. In addition, the duration of activity entry in the data set with rat (rat, calcium chloride arrhythmia, dose 2 mg/kg) is “about 20 minutes”.

As to `CCNCC(=O)NC1[C@H](c2ccccc2)[C@H]1c1ccccc1` (relative stereo) [cis-trans, R1 = H, R2 = C2 H5, N-ethylaminoacetyl-2,3-cis,trans-diphenylcyclopropylamine hydrochloride], the median lethal dose (LD50) at 72 h in the data set “Acute toxicity LD50” stood at 85 mg/kg. For the same compound, the ED50 in the data set on male albine Swiss mice [1] (setting [3]) was 16.5 mg/kg; in the data set on male albine Swiss mice [2] (setting [4]) it was 13 mg/kg.

With `O=C(CN1CCCCC1)NC1[C@H](c2ccccc2)[C@H]1c1ccccc1` (relative stereo) [cis-trans, N-piperidinoacetyl-2,3-cis,trans-diphenylcyclopropylamine hydrochloride], the 50% lethal dose (LD50) at 72 h in “Acute toxicity LD50” was determined as 88 mg/kg. Moreover, the median effective dose (ED50) turned out to be 14.5 mg/kg in the data set on male albine Swiss mice [1] (setting [3]) and 6 mg/kg in the data set on male albine Swiss mice [2] (setting [4]).

On to `CCC1(c2ccccc2)C(=O)NC(=O)NC1=O` [Phenobarbital sodium salt, reference compound], for which the ED50 stood at 35 mg/kg in the data set on male albine Swiss mice [1] (sc, 0.5 h, read-out: M.E.S. ED50) and 4.5 mg/kg with male albine Swiss mice [2] (setting [5]).

As for `O=C1NC(=O)C(c2ccccc2)(c2ccccc2)N1` [Phenitoine Sodium salt, reference compound], the median effective dose (ED50) with male albine Swiss mice [1] (Phenitoine sodium salt (Table 1), route and time not stated, read-out: M.E.S. ED50) was determined as 15 mg/kg; in the data set on male albine Swiss mice [2] (iv, Phenitoine sodium salt (Table 1), route and time not stated, cardiazol 38 mg/kg i.v., read-out: M.M.S. ED50) it was 7.1 mg/kg.

For the compound `CN1C(=O)OC(C)(C)C1=O` [Trimethadione, reference compound], the ED50 in the data set with male albine Swiss mice [2] (setting [5]) came out at 175 mg/kg.

Regarding `CCN(CC)CC(=O)NC1[C@H](c2ccccc2)[C@H]1c1ccccc1` (relative stereo) [cis-trans, R1 = C2 H5, R2 = C2 H5, N-dietylaminoacetyl-2,3-cis-trans-diphenylcyclopropylamine], in the data set “Acute toxicity LD50”, the LD50 at 72 h was 92.5 mg/kg. The ED50 came out at 14.2 mg/kg in the data set with male albine Swiss mice [1] (setting [3]) and 12.5 mg/kg with male albine Swiss mice [2] (setting [4]).

As to “1.1-dimethyl-3-phenyl-urea [Phenurone, reference compound]”, the “M.E.S. ED50” value with male albine Swiss mice [1] (Phenurone (Table 1), per os 60 minutes ante) is recorded as 115 mg/kg. For the same compound, the “M.M.S. ED50” value with male albine Swiss mice [2] (Phenurone (Table 1), per os 60 minutes ante, cardiazol 38 mg/kg i.v.) is 50 mg/kg.

`CC(C)NCC(O)COc1cccc2ccccc12` (stereo not drawn) [propranolol]: the minimal effective dose in the data set on rat (Rattus norvegicus) turned out to be 1 mg/kg.

On to `CN(C)CC(=O)NC1[C@H](c2ccccc2)[C@H]1c1ccccc1` (relative stereo) [cis-trans, R1 = CH3, R2 = CH3, N-dimethylaminoacetyl-2,3-cis,trans-diphenylcyclopropylamine], for which the ED50 with male albine Swiss mice [1] (setting [3]) came to 16.5 mg/kg; with male albine Swiss mice [2] (setting [4]) it was 16 mg/kg.

Take `Cc1ccccc1OCC(O)CO` (stereo not drawn) [Mephenesin, reference compound]: the ED50 in the data set with male albine Swiss mice [2] (setting [6]) was 180 mg/kg.

In the case of `CC(C)N(CC(=O)NC1[C@H](c2ccccc2)[C@H]1c1ccccc1)C(C)C` (relative stereo) [N-diisopropylaminoacetyl-2,3-cis,trans-diphenylcyclopropylamine], the ED50 with male albine Swiss mice [1] (setting [3]) was determined as 135 mg/kg; in the data set on male albine Swiss mice [2] (setting [4]) it was 87 mg/kg.

`O=C(CN1CCCC1)N[C@@H]1[C@@H](c2ccccc2)[C@H]1c1ccccc1` [trans-trans, N-pyrrolidinoacetyl-2,3-trans,trans-diphenylcyclopropylamine hydrochloride] showed an LD50 at 72 h in the data set “Acute toxicity LD50” of 266 mg/kg. Moreover, the ED50 in the data set with male albine Swiss mice [1] (setting [3]) came out at 87 mg/kg.

On to `CCC1(C)CC(=O)NC1=O` (stereo not drawn) [Ethosuximide, reference compound], for which the 50% effective dose (ED50) with male albine Swiss mice [2] (setting [6]) came to 50 mg/kg.

For the compound `CCCN(CCC)CC(=O)NC1[C@H](c2ccccc2)[C@H]1c1ccccc1` (relative stereo) [cis-trans, R1 = n-C3 H7, R2 = n-C3 H7, di-n-propylaminoacetyl-2,3-cis, trans-diphenylcyclopropylamine hydrochloride], the results for the ED50 in the data set with male albine Swiss mice [1] (setting [3]) and with male albine Swiss mice [2] (setting [4]) were above 100 mg/kg and 175 mg/kg, respectively.

Take `CCC1(c2ccccc2)C(=O)NCNC1=O` [Primidone, reference compound]: the ED50 with male albine Swiss mice [2] (po, Primidone (Table 1), per os 6 hours ante, cardiazol 38 mg/kg i.v., read-out: M.M.S. ED50) stood at 5.2 mg/kg.
